In US9351983B2, “Use of glycerophosphoinositols for the treatment of septic shock” (CONSIGLIO NAZIONALE DELLE RICERCHE, priority 2012, dated 2016):

What was measured:
[1] = tested on: LPS-stimulated nuclear translocation of NF-κB; test: Electromobility shift assay of nuclear NF-κB in LPS-stimulated monocytes; format: cell-based, human; conditions: 50 μM, 0.1 μg/ml LPS for 1 h
Procedure: FIG. 7—Glycerophosphoinositols inhibit LPS-stimulated nuclear translocation of NF-κB. Human monocytes purified from the peripheral blood of healthy donors were incubated at 37° C. for 20 min without (−) or with (+) two different concentrations (300 μM and 50 μM) of GroPIns or GroPIns4P, and then for further 1 h in the absence (−) and presence (+) of 0.1 μg/ml LPS from E. coli. At the end of the incubation, the cells were lysed and the nuclear extracts were incubated with radiolabelled oligonucleotide probes that contained the NF-κB binding site. Protein-DNA complexes were separated using 6% non-denaturating acrylamide gels and visualised by autoradiography. The results shown are representative of 4 different experiments performed with cells from different donors.
Cells were harvested by centrifugation at 300×g for 5 min and lysed in ice-cold cell lysis buffer using an Ultraturrax homogeniser (Janke & Kunke, Germany, 4 strokes of 20 s each, at medium speed). The cell nuclei were pelleted by centrifugation (800×g, 5 min, at 4° C.) and recovered. […] After centrifugation (4000×g, for 10 min, at 4° C.), the supernatant was recovered and the protein concentrations in the nuclear extracts were determined using a commercially available protein assay kit (Bio-Rad Laboratories, UK). […]

ERK1/2 = test: Western blotting of phosphorylated ERK1/2 in LPS-stimulated monocytes; format: cell-based, human; conditions: 300 μM, 0.1 μg/ml LPS for 1 h
Procedure: Monocytes from healthy donors were incubated at 37° C. for 20 min without or with 300 μM GroPIns or GroPIns4P, and for an additional 1 h in the absence and presence of 0.1 μg/ml LPS from E. coli. Resentative Western blots are shown, as resolved using 10% SDS-PAGE, showing phosphorylated (p-) and total levels of p38 and ERK1/2. All of the blots were representative of at least three independent experiments.
Protein extracts were analysed by Western blotting by the following procedures. The nitrocellulose filters containing the proteins of interest were incubated in the blocking solution for Western blotting plus 3% bovine serum albumin (BSA) or 5% milk powder (Fluka, Switzerland) for 1 h at room temperature, and then with the primary antibody diluted to its working concentration (see Table 2) in the blocking solution for Western blotting (plus BSA or milk powder). After a 2-4 h incubation at room temperature, or an overnight (O/N) incubation at 4° C., the antibody was removed and the strips were washed twice in Tween®/Tris-buffered salt solution (TTBS), for 15 min each. […] After washing the strips were incubated with the enhanced luminescence (ECL) reagents (Amersham Pharmacia Biotech, NJ, USA), according to the manufacturer instructions, and protein signals were detect by autoradiography using Kodak film.

Structure (SMILES) | reduction of NF-κB nuclear translocation [1] | phosphorylation level of ERK1/2 (ERK1/2)
O=P(O)(O)OC1[C@@H](O)[C@H](O)C(OP(=O)(O)OCC(O)CO)[C@@H](O)[C@H]1O (stereo partly shown) [GroPIns4P, glycerophosphoinositol 4-phosphate] | not at 50 μM | did not affect the phosphorylation levels
O=P(O)(OCC(O)CO)OC1C(O)C(O)C(O)C(O)C1O (stereo not shown) [GroPIns, glycerophosphoinositol] | not at 50 μM | did not affect the phosphorylation levels
